From the CheMixHub ionic liquid set

Test: xn = mol fraction of the nth substance listed

CC[N+](CC)(CC)CC.[Cl-] + CC1(C)CC(O)CC(C)(C)N1[O] + O
Settings | electrical conductivity [S/m]
323.15 K, 100 kPa, frequency 0.001 MHz, x2 = 0, x1 = 0.2 | 4.1

CCCn1cc[n+](C)c1.[Br-] + CC1COC(=O)O1
298 K, 101 kPa
Settings | electrical conductivity [S/m]
x2 = 0.1 | 0.04
x2 = 0.64 | 0.5
x2 = 0.67 | 0.52
x2 = 0.72 | 0.58

CC[n+]1ccn(C)c1C.O=S(=O)([N-]S(=O)(=O)C(F)(F)F)C(F)(F)F + CC1COC(=O)O1
101.3 kPa
Settings | viscosity [mPa·s]
303.15 K, x1 = 0.203 | 5.35
303.15 K, x1 = 0.5825 | 20.07
313.15 K, x1 = 0.7004 | 19.96
318.15 K, x1 = 0.3994 | 7.33
318.15 K, x1 = 0.5149 | 10.82
318.15 K, x1 = 0.8032 | 21.86
323.15 K, x1 = 0.1025 | 2.411
323.15 K, x1 = 0.5149 | 9.41
323.15 K, x1 = 0.7004 | 15.48
328.15 K, x1 = 0.203 | 3.199
328.15 K, x1 = 0.8032 | 16.86
333.15 K, x1 = 0.3994 | 5.29
338.15 K, x1 = 0.3078 | 3.726
343.15 K, x1 = 0.3994 | 4.376
343.15 K, x1 = 0.5825 | 6.93
343.15 K, x1 = 0.8903 | 13.67
348.15 K, x1 = 0.1025 | 1.651
348.15 K, x1 = 0.7004 | 8.13

CCCCc1n(S(=O)(=O)O)cc[n+]1S(=O)(=O)O.O=C([O-])C(F)(F)F + CC#N
101 kPa
Settings | electrical conductivity [S/m]
278.15 K, x1 = 0.02551 | 1.24
283.15 K, x1 = 0.02551 | 1.19
288.15 K, x1 = 0.02551 | 1.07
293.15 K, x1 = 0.02551 | 0.944
298.15 K, x1 = 0.0052 | 0.359
298.15 K, x1 = 0.0104 | 0.425
298.15 K, x1 = 0.0155 | 0.554
298.15 K, x1 = 0.0205 | 0.632
298.15 K, x1 = 0.0255 | 0.899
298.15 K, x1 = 0.02551 | 0.899
303.15 K, x1 = 0.02551 | 0.665
308.15 K, x1 = 0.02551 | 0.646
313.15 K, x1 = 0.02551 | 0.545
318.15 K, x1 = 0.02551 | 0.521
323.15 K, x1 = 0.02551 | 0.468
328.15 K, x1 = 0.02551 | 0.457
333.15 K, x1 = 0.02551 | 0.423

CC[N+](CC)(CC)CC.[Cl-] + CC(=O)CCC(=O)O
101.3 kPa, x1 = 0.3333
Settings | viscosity [mPa·s]
298.15 K | 140
308.15 K | 83.8
318.15 K | 52.7
328.15 K | 33
338.15 K | 20.23

C[N+](C)(CCO)Cc1ccccc1.[Cl-] + CC(=O)CCC(=O)O
101.33 kPa, x1 = 0.3333
Settings | viscosity [mPa·s]
293.15 K | 2026
298.15 K | 1235
303.15 K | 785
308.15 K | 518
313.15 K | 353
318.15 K | 248
323.15 K | 179
328.15 K | 133
333.15 K | 101
338.15 K | 78
343.15 K | 61
348.15 K | 49
353.15 K | 40

CCCn1cc[n+](C)c1.[Br-] + CC(=O)N(C)C
298.15 K, 101 kPa
Settings | viscosity [mPa·s]
x1 = 0.01714 | 1.124
x2 = 0.9358 | 1.653
x2 = 0.9583 | 1.383

CCCC[n+]1ccn(C)c1.N#C[N-]C#N + CC(=O)[O-].[K+] + O
viscosity [mPa·s], 101 kPa
Settings | 298.15 K | 308.15 K | 318.15 K | 323.15 K
x2 = 0.1831, x3 = 0.8019 | 8.2 | 6 | – | –
x2 = 0.1943, x3 = 0.7933 | 10 | 7.2 | 5.4 | 4.815

CC(=O)[O-].CC[n+]1ccn(C)c1 + CC(=O)[O-].[NH4+]
323.15 K, 101 kPa, x2 = 0
Settings | electrical conductivity [S/m] | viscosity [mPa·s]
– | 0.918 | 35.7

CCCN + CC(C)(C)O + CCCCCC[n+]1ccn(C)c1.F[B-](F)(F)F
298.15 K, 101 kPa
Settings | viscosity [mPa·s]
x2 = 0.0474, x1 = 0.3489 | 46.28
x2 = 0.0483, x1 = 0.4517 | 28.58
x2 = 0.05, x1 = 0.0708 | 120.9
x2 = 0.05, x1 = 0.8998 | 0.723
x2 = 0.0508, x1 = 0.2562 | 66.1
x2 = 0.0508, x1 = 0.8482 | 1.318
x2 = 0.0525, x1 = 0.7484 | 3.959
x2 = 0.0529, x1 = 0.6504 | 8.74
x2 = 0.055, x1 = 0.5488 | 16.3
x2 = 0.0572, x1 = 0.1668 | 88.1
x2 = 0.1042, x1 = 0.1719 | 73.7
x2 = 0.1487, x1 = 0.0497 | 96.6
x2 = 0.1555, x1 = 0.1488 | 66.7
x2 = 0.247, x1 = 0.0423 | 72.1
x2 = 0.251, x1 = 0.3468 | 15.17
x2 = 0.3138, x1 = 0.0592 | 53
x2 = 0.3494, x1 = 0.5505 | 1.808
x2 = 0.3508, x1 = 0.5993 | 1.244
x2 = 0.3529, x1 = 0.349 | 7.072
x2 = 0.3545, x1 = 0.4468 | 2.923
x2 = 0.3596, x1 = 0.0184 | 53.2
x2 = 0.4492, x1 = 0.1454 | 18.61
x2 = 0.4496, x1 = 0.0492 | 32.35
x2 = 0.6483, x1 = 0.1509 | 7.984
x2 = 0.6496, x1 = 0.2508 | 4.06
x2 = 0.6511, x1 = 0.299 | 2.994
x2 = 0.6551, x1 = 0.0445 | 15.43
x2 = 0.7929, x1 = 0.1032 | 7.67
x2 = 0.8001, x1 = 0.15 | 5.198
x2 = 0.8965, x1 = 0.0518 | 7.226

CC[N+](CC)(CC)CC.[Cl-] + CCCCCCCCCC(=O)O
100 kPa, x1 = 0.333
Settings | electrical conductivity [S/m] | viscosity [mPa·s]
293.15 K | 0.0223 | 275
303.15 K | 0.0338 | 185
313.15 K | 0.0498 | 128
323.15 K | 0.0718 | 90
333.15 K | 0.101 | 64.9

OC[C@H]1O[C@H](O[C@H]2[C@H](O)[C@@H](O)C(O)O[C@@H]2CO)[C@H](O)[C@@H](O)[C@@H]1O (stereo partly drawn) + CCCCCCCCCCCCCCCC[N+](C)(C)C.[Br-] + O
viscosity [mPa·s], 100 kPa
Settings | 298.15 K | 308.15 K | 318.15 K
x2 = 7.13e-06, x1 = 0.002703 | 1.07 | 0.885 | 0.734
x2 = 7.15e-06, x1 = 0.002359 | 1.048 | 0.867 | 0.719
x2 = 7.16e-06, x1 = 0.001637 | 1.002 | 0.829 | 0.688
x2 = 7.16e-06, x1 = 0.001964 | 1.023 | 0.846 | 0.702
x2 = 7.18e-06, x1 = 0.0009633 | 0.958 | 0.793 | 0.659
x2 = 7.18e-06, x1 = 0.001278 | 0.978 | 0.809 | 0.672
x2 = 1.423e-05, x1 = 0.002657 | 1.073 | 0.888 | 0.736
x2 = 1.424e-05, x1 = 0.002424 | 1.058 | 0.875 | 0.726
x2 = 1.428e-05, x1 = 0.001986 | 1.029 | 0.851 | 0.706
x2 = 1.43e-05, x1 = 0.001593 | 1.003 | 0.83 | 0.688
x2 = 1.433e-05, x1 = 0.001228 | 0.979 | 0.81 | 0.672
x2 = 1.435e-05, x1 = 0.0009418 | 0.96 | 0.795 | 0.659
x2 = 2.126e-05, x1 = 0.002693 | 1.08 | 0.894 | 0.74
x2 = 2.128e-05, x1 = 0.002482 | 1.066 | 0.882 | 0.73
x2 = 2.135e-05, x1 = 0.001972 | 1.032 | 0.854 | 0.707
x2 = 2.141e-05, x1 = 0.001636 | 1.01 | 0.835 | 0.692
x2 = 2.143e-05, x1 = 0.001347 | 0.99 | 0.819 | 0.678
x2 = 2.15e-05, x1 = 0.0008556 | 0.957 | 0.792 | 0.656

NCC(=O)O + CCCCCCCCCCCCCCCC[n+]1ccccc1.[Cl-] + O
308.15 K, 101 kPa
Settings | electrical conductivity [S/m]
x1 = 2.018e-05, x2 = 0 | 6.2e-05
x1 = 0.0002, x2 = 0 | 0.000171
x1 = 0.0003639, x2 = 0 | 0.000413
x1 = 0.0009182, x2 = 0 | 0.00011
x1 = 0.001802, x2 = 0 | 0.000292
